From patent US12545695B2, “Compounds for inhibiting neovascularization factors and use thereof” (UNIST (ULSAN NATIONAL INSTITUTE OF SCIENCE AND TECHNOLOGY), priority 2019, dated 2026)

Experiments:
TRAP-1 [1] = experiment: Pull-down assay: client proteins SIRT3 and SDHB on GST-TRAP1 beads; assay type: binding; details: TRAP1-bead form with isolated mitochondria and drug, 4° C., 18 hours (FIG. 14)
Method: A pull-down assay was performed to confirm whether SMx competitively binds to SIRT3 and SDHB, which are known as client proteins of TRAP-1. TRAP1 protein in the GST fusion form was purified from bacteria cells and then bound to glutathione beads to make a TRAP1-bead form, and then the TRAP1-bead form was bound to the mitochondria isolated from mammalian cells (Thermo Scientific mitochondria isolation kit) with a drug at 4° C. for 18 hours. The cells were treated with SMx, and gamitrinib and PU-H71, which are previously developed N-terminal domain inhibitors of hsp90s, as the drugs, according to the concentrations shown in the drawing. […] This is strong evidence that SMx has the ability to bind to the middle domain of TRAP-1.

TRAP-1 [2] = experiment: ATPase activity assay (PiColorLock Gold Phosphate Detection Kit); assay type: biochemical; details: TRAP1 0.5 μM, 0.2 mM ATP, inhibitor 0.520 μM preincubated 30 minutes (FIG. 16)
Method: ATPase activity was measured by measuring the release of inorganic phosphates through the PiColorLock Gold Phosphate Detection Kit (Innova Biosciences) according to the manufacturer's manual. TRAP1 (0.5 μM) was cultured with 0.2 mM ATP in 100 mM Tris, 20 mM KCl, and 6 mM MgCl2 under the conditions of pH 7.0 and 37° C. for 3 hours. Thereafter, the PiColorLock Gold reagent and an accelerator (100:1) were added to a 100 μL ATP hydrolyzate sample. After culturing at 25° C. for 5 minutes, the change in color was stopped by adding 10 μL of a stop solution thereto, and the absorbance at 620 nm was measured by SYNERGY NEO microplate reader (BioTek Instruments).
For inhibitory ability analysis, TRAP1 was cultured with a predetermined concentration (0.520 μM) of inhibitor for 30 minutes and then stirred with ATP. Absorbance values were normalized to a DMSO control and data was expressed as % ATPase activity.
For inhibitory ability analysis, TRAP-1 was cultured with a predetermined concentration (0.520 μM) of inhibitor for 30 minutes and then stirred with ATP. Absorbance values were normalized to a DMSO control and data was expressed as % ATPase activity.

Compound: gamitrinib
- binding of the client protein (SIRT3, SDHB) to TRAP-1 (TRAP-1 [1]): not significantly changed

Compound: CC(C)NCCCn1c(Sc2cc3c(cc2I)OCO3)nc2c(N)ncnc21 [PU-H71]
- binding of the client protein (SIRT3, SDHB) to TRAP-1 (TRAP-1 [1]): not significantly changed
- ATPase activity of TRAP-1 (TRAP-1 [2]): significantly decreased according to the concentration
